This passage reports IC50 results from patent US5721267A, “Chemotherapeutic pyrrolocarbazole derivatives” (Syntex (U.S.A.) Inc., priority 1997, dated 1998).

This test has as its target T1, β1 isozyme of PKC from rat brain (Rattus norvegicus, UniProt P68403).
T1 construct: β1 isozyme of PKC from rat brain; from tissue; host or cells: rat brain
Briefly: Protein kinase C inhibition assay (32P incorporation from γ-32P ATP into synthetic peptide substrate). Format: biochemical. To be noted: activated by 5×10^-6 M diC8 and 1 μg/mL phosphatidylserine, 50 μM ATP, read-out: IC50 (concentration necessary to achieve 50% inhibition of PKC). The method, then:
In vitro activity for protein kinase C inhibition, is quantitated by measuring incorporation of […] from γ-^32 P ATP into synthetic peptide substrates.
Protein Kinase C (PKC) inhibitory activity is quantitated by measuring incorporation of ^32 P from γ-^32 P ATP into synthetic peptide substrates. The inhibitory potential is measured using the β1 isozyme of PKC from rat brain and the synthetic peptide substrate ala-lys-arg-arg-arg-leu-ser-ser-leu-arg-ala.
A reaction mixture containing 25 mM Tris-HCl, pH 7.5, 2.5 mM Mg(NO3), 1.0 mM EGTA, 20 μM substrate, 1 μg/mL phosphatidlserine (PS), 5×10 ^-6 M diacylglycerol(di-C8), and 50 μM ATP is spiked with γ-^32 P ATP (>5,000 Ci/mmol) to provide approximately 10^6 CPM per reaction and 0.08 μg/mL PKC in a 50 μl volume per well. The assay is run with or without test compound, added at various concentrations. After five minutes incubation at room temperature, the reaction is stopped by the addition of 0.2V of a 50% TCA solution. A 30 μl sample from each well (control and test compound) is then spotted onto Whatman P-81 ion exchange chromatography paper, and 32-P incorporation is then counted on a Beckman LS 5000 TA liquid scintillation counter. […]
% Inhibition=1.0 -[(sample CPM-basal CPM)/(total CPM-basal CPM)]×100 and the concentration necessary to achieve 50% Inhibition is determined.

Structures are written as SMILES.

T1 sequence (P68403 whole entry): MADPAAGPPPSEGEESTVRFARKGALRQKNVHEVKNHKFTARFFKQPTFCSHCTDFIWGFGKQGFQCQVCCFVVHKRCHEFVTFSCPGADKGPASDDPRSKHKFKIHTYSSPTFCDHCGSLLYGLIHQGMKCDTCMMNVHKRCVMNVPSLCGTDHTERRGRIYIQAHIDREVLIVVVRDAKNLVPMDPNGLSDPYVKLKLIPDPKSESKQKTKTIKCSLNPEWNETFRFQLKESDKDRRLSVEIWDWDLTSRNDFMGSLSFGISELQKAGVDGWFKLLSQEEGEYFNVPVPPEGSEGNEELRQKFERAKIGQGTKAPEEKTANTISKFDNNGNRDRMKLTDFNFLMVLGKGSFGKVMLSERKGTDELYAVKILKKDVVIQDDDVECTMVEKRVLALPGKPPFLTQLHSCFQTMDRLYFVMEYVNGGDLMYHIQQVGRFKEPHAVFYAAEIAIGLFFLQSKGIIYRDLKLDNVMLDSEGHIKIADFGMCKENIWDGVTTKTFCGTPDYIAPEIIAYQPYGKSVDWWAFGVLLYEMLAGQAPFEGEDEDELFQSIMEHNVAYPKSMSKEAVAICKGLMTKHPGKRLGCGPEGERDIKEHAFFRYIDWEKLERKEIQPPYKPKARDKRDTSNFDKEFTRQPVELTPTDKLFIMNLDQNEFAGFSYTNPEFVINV

Regarding `CNCCCn1c2ccccc2c2c3c(c(-c4ccsc4)cc21)C(=O)NC3=O` [1,3-dioxo-6-(3-methylaminopropyl)-1,2,3,6-tetrahydro-4-(thiophen-3-yl)-pyrrolo[3,4-c]carbazole], the IC50 came out at 30 nM.
